Measurements reported in patent US20060199853A1, “Analogs of 4-hydroxyisoleucine and uses thereof” (priority 2005, published 2006).

Key:
[1] = test system: INS-1 cells; test: Glucose-dependent stimulation of insulin secretion in INS-1 cells; type: cell-based; settings: for stimulation of insulin secretion: FIGS. 17A-17E, single concentration of 0.5 mM, 4.5 or 5 mM glucose; for insulin stimulating activity: 0.5 mM compound, 4.5 mM glucose
Description: Selected analogs according to the invention were tested in a blinded fashion for insulinotropic effect on INS-1 cells. Briefly, the cells were plated at a density of 2×10^5 in 12 well plates and incubated for 2 days in RPMI with 10% fetal calf serum and 11 mM glucose. The medium was removed on the third day post-plating and replaced with RPMI containing 3 mM glucose with 10% fetal calf serum. The cells were incubated for an additional 24 hours. On the fourth day post-plating, the medium was removed and replaced with Krebs-Ringer bicarbonate buffer containing 2 mM glucose. The cells were incubated for 30 min and the buffer was removed and replaced with Krebs-Ringer bicarbonate buffer with 4.5 mM glucose containing the compounds to be tested at a concentration of 0.5 mM. The cells were incubated for 1 hour. Basal insulin secretion was determined by incubating the cells in the presence of buffer with 2 mM glucose. The presence of glucose at 4.5 and 10 mM stimulated insulin secretion served as the reference control and positive control, respectively.
Selected analogs according to the invention were screened for insulinotropic effect on INS-1 pancreatic beta cells according to the method described in Example 3.

[2] = test system: differentiated 3T3-L1 adipocyte cells; test: Stimulation of glucose uptake (3H-deoxy-glucose) by differentiated 3T3-L1 adipocyte cells; type: cell-based; settings: insulin at 10^-7 M; for stimulation of glucose uptake: FIG. 15A, compounds at three concentrations, last 30 min of starvation; for stimulation of glucose uptake beyond that caused by insulin alone: FIG. 15B, 0.5 mM
Description: Selected analogs according to the invention were tested for their effect on the uptake of ^3H-deoxy-glucose by differentiated 3T3-L1 adipocyte cells. Briefly, 3T3-L1 adipocyte cells (ATCC; Cl-173) were cultured in 12 well tissue culture plates for 3 days in order to reach confluence (Lakshmanan et al., Diabetes Mellitus: Methods and Protocols, Saire Ozcna, Ed., Humana Press Inc., Tonowa, N.J. 97-103, 2003). The culture medium was removed and replaced with differentiation medium (Green and Meuth, Cell 3:127-133, 1974; Madsen et al., Biochem. J. 375:539-549, 2003) and then the cells were incubated for an additional 9 days. The state of differentiation was confirmed by visual examination. Cell starvation was conducted for 5 hours by replacing the differentiation medium with one lacking fetal calf serum. During the last 30 minutes of the starvation period, the cells were exposed to compounds to be assayed at a range of concentrations. As a positive control, cells were exposed to insulin (0.0167 U/mL; Sigma; Cat. No. 15534) for the last 30 minutes of the starvation period Cells were exposed to 0.5 mM isoleucine are used as a control for background uptake. All treatments were performed in triplicate. Cells were washed, then fresh medium containing 16 μM ^3H-Deoxy-D-glucose (0.5 μCi/mL) and 10 μM 2-Deoxy-D-glucose was added and the cells were incubated for 10 min. Glucose uptake was stopped by washing the cells with ice cold PBS. The cells were lysed and specific activity in the lysate was determined relative to background uptake of ^3H-deoxy-glucose. Results were standardized on the basis of protein content per well.
FIG. 1 5B is another figure showing insulin stimulation of glucose uptake by insulin at 10^−7M, and by the analogs of the invention.

[3] = test system: Diet Induced Obesity (DIO)-C57BL/6 Mice; test: Glycemic response to an OGTT after a single oral administration in DIO-C57BL/6 mice; type: in vivo; settings: FIGS. 18A, 18B; for glycemic response following OGTT (delta glycemia AUC): 100 mg/kg, OGTT 10 minutes post-administration; for efficacy relative to the other compounds tested: OGTT
Description: Studies were conducted to evaluate the effect of acute oral administration of selected analogs according to the invention on the glycemic response of Diet-Induced Obesity (DIO)-C57BI/6 mice following an Oral Glucose Tolerance Test (OGTT).
In the first study, a total of 40 mice were used. The animals were randomized according to their basal glycemia values following a 5±0.5 hours fasting period and then distributed into 5 groups (1 control and 4 treated groups). Each group was composed of 8 animals. On the day of treatment, test articles were dissolved in reverse osmosis water and kept on ice. Control group (Group 1) received sterile water and Group 2 to 5 received 100 mg/kg of Compound #14a, Compound #128, Compound #133 and Compound #13e, respectively.
On the day of experimentation, animals were fasted ˜5 hours prior to the OGTT and then OGTT was performed at 10 minutes post-test article administration, by oral gavage administration of 40% glucose solution. Whole blood glucose levels were monitored using a hand-held glucometer prior to OGTT and for up to 2 hours post-lucose challenge.
In a separate experiment, the effect of acute oral administration of another analog, Compound #85(101a), on the glycemic response of DIO-mice was evaluated using the same experimental design.
FIGS. 18A and 18B show the glycemic response of mice following an OGTT performed after a single oral administration of Compounds #14a, #128, #133, #13e, and #85(101a). For both figures, delta glycemia values were calculated by substraction of pre-OGTT glycemia value. AUC values were obtained from the delta glycemia curves. Values represent the mean±SEM. N=8 animals/group. Ctl=Control DIO.*p<0.05; . . . p<0.001.

[4] = test system: Diet Induced Obesity (DIO)-C57BL/6 Mice; test: Glycemic response to an OGTT during chronic oral administration in DIO-C57BL/6 mice; type: in vivo; settings: for time of maximal effect on control of glycemia: chronic oral administration twice daily
Description: Studies were conducted to evaluate the effect of a chronic oral administration of selected analogs according to the invention on the glycemic response of Diet-induced Obesity (DIO)-C57BI/6 mice following an Oral Glucose Tolerance Test (OGTT) performed weekly.
In a first study, a total of 56 animals were used. The animals were distributed into 7 groups (6 treated and 1 high fat diet control groups). Each group was composed of 8 animals. The mice were randomized according to basal glycemia values following a 5±0.5 hours fasting period. Compound #14a and #133 were dissolved in reverse osmosis water while Compound #13e was dissolved in 200 mM Bicarbonate/0.1% Tween-20 buffer, pH=9.0. Compounds #14a and #133 were kept at 4° C (administration to groups 2 & 3, and 4 & 5, respectively) while Compound #13e was freshly prepared daily. Control animals received sterile saline, twice daily (Groups 1 […]). Mice from groups 2 and 3 were treated twice daily with Compound #14a at 50 and 100 mg/kg, respectively. Animals from groups 4 and 5 received twice daily 50 and 100 mg/kg of Compound #133, respectively. Mice from groups 6 and 7 received 25 and 50 mg/kg of Compound #13e, twice daily, respectively.
On day 0, 7, 14, and 21, animals fasted for about 5 hours were challenged with an Oral Glucose Tolerance Test (OGTT) at 5 hours post-AM test article administration. Whole blood glucose levels were monitored using a hand-held glucometer prior to OGTT and for up to 2 hours post-glucose challenge. In a separate experiment, the same experimental design was used to evaluate the effect of chronic administration of Compound #85(101a) on the glycemic response of DIO-C57BI/6 mice following an Oral Glucose Tolerance Test (OGTT) performed after 7 days of treatment.
FIGS. 19A, 19B, 19C, and 19D are bar graphs showing glycemic response of mice following an OGTT performed after 7 days (FIGS. 19A and 19D), 14 days (FIG. 19B) or 21 days (FIG. 19C) of treatment after chronic oral administration of selected analogs according to the invention. For each figure, delta glycemia values were calculated by substraction of pre-OGTT glycemia value. AUC values were obtained from the delta glycemia curves. Values represent the mean±SEM. N=8 animals/group. Ctl=Control DIO.*p<0.05.

| Compound | stimulation of insulin secretion [1] | stimulation of glucose uptake [2] | glycemic response following OGTT (delta glycemia AUC) [3] | further results |
| --- | --- | --- | --- | --- |
| NC(CC(O)c1ccccc1)C(=O)O (centres unmarked) [#61] | more effective to stimulate insulin secretion than parent compound #14a | – | – | – |
| C=CC(C)(C)C(N)C(=O)O (centres unmarked) [#102b] | – | at least equivalent activity to the parent compound | – | – |
| CC(O)C1C(O)CN[C@@H]1C(=O)O (some centres unmarked) [#33] | – | at least equivalent activity to the parent compound | – | – |
| N[C@H](C(=O)O)[C@@H]1CCCC[C@H]1O [#13e] | more effective to stimulate insulin secretion than parent compound #14a | – | significant effect on the glycemic control of DIO-mice | stimulation of glucose uptake beyond that caused by insulin alone [2]: greater than the stimulation caused by the parent compound; insulin stimulating activity ([1]; FIG. 16A, 1 hour): most effective; insulin stimulating activity ([1]; FIG. 16B): most effective; efficacy relative to the other compounds tested [3]: most efficacious; glycemia increase following OGTT ([4]; 25 and 50 mg/kg twice daily, half the dose of the other treated groups): significantly reduced the glycemia increase in DIO-mice; hyperglycaemic response following OGTT ([4]; 25 and 50 mg/kg twice daily, Day 21, FIG. 19C): reduced significantly the hyperglycaemic response of animals; time of maximal effect on control of glycemia [4]: 14 days post-initiation of treatment |
| NC(CC(O)C1CCCCC1)C(=O)O (centres unmarked) [#59] | more effective to stimulate insulin secretion than parent compound #14a | – | – | – |
| insulin [reference compound] | – | strongly promoted glucose uptake | – | – |
| C[C@H]([C@H](N)C(=O)O)C(C)(C)O [#85(101a)] | – | – | significant effect on the glycemic control of DIO-mice | efficacy relative to the other compounds tested [3]: most efficacious; glycemic control following OGTT ([4]; 7 consecutive days of administration, statistically significant vs control, FIG. 19D): improved the glycemic control of DIO-mice |
| N[C@H](C(=O)O)[C@H]1CCCC[C@H]1O [#15e] | more effective to stimulate insulin secretion than parent compound #14a | – | – | – |
| CC(=O)N[C@@H]1C(=O)O[C@@H](C)[C@@H]1C [#104] | more effective to stimulate insulin secretion than parent compound #14a | – | – | – |
| CC(C)[C@H](NC[C@@H](C)O)C(=O)O [#133] | – | – | significant effect on the glycemic control of DIO-mice | time of maximal effect on control of glycemia [4]: 14 days post-initiation of treatment |
| C[C@@H]([C@H](C)O)[C@H](N)C(=O)O [#14a] | significant insulin stimulating activity in all the experiments | stimulated glucose uptake at all three concentrations tested | significant effect on the glycemic control of DIO-mice | stimulation of glucose uptake beyond that caused by insulin alone [2]: limited stimulation of glucose uptake beyond that caused by insulin alone; insulin stimulating activity ([1]; FIG. 16A, 1 hour): significant insulin stimulating activity; time of maximal effect on control of glycemia [4]: 14 days post-initiation of treatment |
| O=C(O)[C@H]1C[C@@H](O)CN1 [#201] | more effective to stimulate insulin secretion than parent compound #14a | – | – | – |
| CC1C(O)CN[C@@H]1C(=O)O (some centres unmarked) [#22] | more effective to stimulate insulin secretion than parent compound #14a | – | – | – |
